Publication PMC6468293, “Double autoinhibition mechanism of signal transduction ATPases with numerous domains (STAND) with a tetratricopeptide repeat sensor” (Nucleic Acids Research, 2019)
Numbering of substitutions follows the chain as printed. In names and notes the source's numbering stands.

Tests used:
PH0952ΔN = target: T1, PH0952ΔN (Pyrococcus horikoshii, UniProt O58663); test: X-ray crystal structure; details: 3.4 Å; ADP present in purification buffer; nucleotide-binding site of the NOD
T1 construct: gene PH0952; NBD 102-262, HD 263-316, WHD 317-393, arm 394-496, TPR sensor 497-748; from E. coli Rosetta (DE3), intein tag cleaved; monomeric resting form
T1 sequence (O58663 entry or part of it, stated change not applied): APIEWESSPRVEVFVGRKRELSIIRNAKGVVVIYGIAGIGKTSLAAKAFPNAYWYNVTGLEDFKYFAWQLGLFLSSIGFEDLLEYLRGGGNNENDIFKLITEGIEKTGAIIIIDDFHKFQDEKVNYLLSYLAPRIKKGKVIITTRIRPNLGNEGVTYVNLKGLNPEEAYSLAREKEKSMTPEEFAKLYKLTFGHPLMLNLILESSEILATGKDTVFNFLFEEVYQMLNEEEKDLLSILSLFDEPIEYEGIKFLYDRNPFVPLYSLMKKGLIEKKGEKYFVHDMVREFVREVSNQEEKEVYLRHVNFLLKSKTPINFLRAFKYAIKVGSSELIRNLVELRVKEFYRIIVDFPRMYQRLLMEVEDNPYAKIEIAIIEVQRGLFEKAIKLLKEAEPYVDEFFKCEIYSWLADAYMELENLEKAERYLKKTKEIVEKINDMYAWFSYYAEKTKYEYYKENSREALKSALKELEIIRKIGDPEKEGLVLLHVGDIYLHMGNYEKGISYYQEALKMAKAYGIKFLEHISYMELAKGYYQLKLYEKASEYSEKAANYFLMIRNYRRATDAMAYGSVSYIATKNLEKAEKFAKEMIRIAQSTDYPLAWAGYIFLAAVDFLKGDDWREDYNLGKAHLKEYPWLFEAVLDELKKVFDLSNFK

MalT [1] = target: T2, MalT (Escherichia coli, UniProt P06993, R171E); test: limited proteolysis (proteinase K); type: biochemical; details: 22 mM maltotriose; 0.44 mM ATP or ADP; pH 8.0, 25 °C
T2 construct: full-length, His6-tagged (pOM206, pET24a(+) derivative), purified from E. coli BL21 ΔmalT
T2 sequence (P06993 whole entry R171E): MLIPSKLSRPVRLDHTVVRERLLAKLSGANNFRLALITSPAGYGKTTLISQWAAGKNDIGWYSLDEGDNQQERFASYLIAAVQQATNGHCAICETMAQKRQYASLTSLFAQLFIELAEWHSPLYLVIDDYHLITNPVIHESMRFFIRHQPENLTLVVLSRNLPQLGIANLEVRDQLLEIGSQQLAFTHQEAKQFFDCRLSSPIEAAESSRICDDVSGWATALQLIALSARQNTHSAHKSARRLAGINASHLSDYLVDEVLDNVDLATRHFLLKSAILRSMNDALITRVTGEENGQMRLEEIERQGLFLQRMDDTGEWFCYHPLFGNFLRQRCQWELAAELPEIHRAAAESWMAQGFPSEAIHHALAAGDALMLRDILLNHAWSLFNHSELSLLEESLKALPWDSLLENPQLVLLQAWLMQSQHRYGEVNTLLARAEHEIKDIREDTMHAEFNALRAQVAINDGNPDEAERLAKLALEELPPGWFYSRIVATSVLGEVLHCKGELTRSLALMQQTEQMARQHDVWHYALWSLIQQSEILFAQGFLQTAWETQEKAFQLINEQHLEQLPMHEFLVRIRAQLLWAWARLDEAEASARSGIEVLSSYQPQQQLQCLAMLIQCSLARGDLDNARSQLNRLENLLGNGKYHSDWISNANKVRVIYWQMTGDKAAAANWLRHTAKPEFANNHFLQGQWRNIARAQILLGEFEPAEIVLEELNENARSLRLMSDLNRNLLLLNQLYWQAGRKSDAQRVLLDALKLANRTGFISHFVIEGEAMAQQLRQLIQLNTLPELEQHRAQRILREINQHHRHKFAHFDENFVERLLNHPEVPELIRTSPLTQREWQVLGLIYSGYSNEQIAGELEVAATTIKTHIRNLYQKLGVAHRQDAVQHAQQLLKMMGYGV

MalT [2] = target: T3, MalT (Escherichia coli, UniProt P06993, H562C); test: analytical size-exclusion chromatography (multimerization); type: biochemical; details: reducing conditions
T3 construct: full-length, His6-tagged (pOM206, pET24a(+) derivative), purified from E. coli BL21 ΔmalT
T3 sequence (P06993 whole entry H562C): as the sequence (P06993 whole entry R171E) above, with E171R, H562C counted along it

MalT [3] = target: T4, MalT (Escherichia coli, UniProt P06993, M96T/R171E); test: limited proteolysis (proteinase K); type: biochemical; details: 22 mM maltotriose; 0.44 mM ATP or ADP; pH 8.0, 25 °C
T4 construct: full-length, His6-tagged (pOM206, pET24a(+) derivative), purified from E. coli BL21 ΔmalT
T4 sequence (P06993 whole entry M96T/R171E): as the sequence (P06993 whole entry R171E) above, with M96T counted along it

MalT [4] = target: T5, MalT (Escherichia coli, UniProt P06993, M96C); test: analytical size-exclusion chromatography (multimerization); type: biochemical; details: reducing conditions
T5 construct: full-length, His6-tagged (pOM206, pET24a(+) derivative), purified from E. coli BL21 ΔmalT
T5 sequence (P06993 whole entry M96C): as the sequence (P06993 whole entry R171E) above, with M96C, E171R counted along it

MalT [5] = target: T6, MalT (Escherichia coli, UniProt P06993); test: analytical size-exclusion chromatography (multimerization) and limited proteolysis; type: biochemical; details: with ATP; inducer; pH 8.0
T6 construct: full-length, His6-tagged (pOM206, pET24a(+) derivative), purified from E. coli BL21 ΔmalT

[6] = target: the molecule itself; test: SEC; analytical Superdex 200 PC3.2/30, room temperature; reducing conditions; with the inducer maltotriose (Supplementary Figure S9)
[7] = target: the molecule itself; test: SEC; analytical Superdex 200, room temperature; Tris-HCl 50 mM pH 8.0, 10% sucrose, 0.033 M K3 citrate, 10 mM Mg acetate, 0.1 mM EDTA, 1 mM DTT, 0.1 mM ADP; no maltotriose; high protein concentration (54 μM)

Nc1ncnc2c1ncn2[C@@H]1O[C@H](COP(=O)(O)OP(=O)(O)O)[C@@H](O)[C@H]1O [ADP]
X-ray crystal structure (PH0952ΔN): a ligand was clearly visible in the experimental electron density map

OC[C@H]1O[C@H](O[C@H]2[C@H](O)[C@@H](O)[C@@H](O[C@H]3[C@H](O)[C@@H](O)C(O)O[C@@H]3CO)O[C@@H]2CO)[C@H](O)[C@@H](O)[C@@H]1O (some centres unmarked) [maltotriose]
limited proteolysis (proteinase K) (MalT [1]): underwent the same maltotriose-induced conformational changes as MalT | analytical size-exclusion chromatography (multimerization) (MalT [2]): the four proteins were monomeric in the absence of the inducer, maltotriose | limited proteolysis (proteinase K) (MalT [3]): underwent the same maltotriose-induced conformational changes as MalT | analytical size-exclusion chromatography (multimerization) (MalT [4]): the four proteins were monomeric in the absence of the inducer, maltotriose | analytical size-exclusion chromatography (multimerization) and limited proteolys (MalT [5]): responded to its presence by multimerizing to the same extent

B1: His6-tagged MalT (Escherichia coli maltose system regulator), wild type (natural protein, E. coli, UniProt P06993 1-901, looked up)
chain: MLIPSKLSRPVRLDHTVVRERLLAKLSGANNFRLALITSPAGYGKTTLISQWAAGKNDIGWYSLDEGDNQQERFASYLIAAVQQATNGHCAICETMAQKRQYASLTSLFAQLFIELAEWHSPLYLVIDDYHLITNPVIHESMRFFIRHQPENLTLVVLSRNLPQLGIANLRVRDQLLEIGSQQLAFTHQEAKQFFDCRLSSPIEAAESSRICDDVSGWATALQLIALSARQNTHSAHKSARRLAGINASHLSDYLVDEVLDNVDLATRHFLLKSAILRSMNDALITRVTGEENGQMRLEEIERQGLFLQRMDDTGEWFCYHPLFGNFLRQRCQWELAAELPEIHRAAAESWMAQGFPSEAIHHALAAGDALMLRDILLNHAWSLFNHSELSLLEESLKALPWDSLLENPQLVLLQAWLMQSQHRYGEVNTLLARAEHEIKDIREDTMHAEFNALRAQVAINDGNPDEAERLAKLALEELPPGWFYSRIVATSVLGEVLHCKGELTRSLALMQQTEQMARQHDVWHYALWSLIQQSEILFAQGFLQTAWETQEKAFQLINEQHLEQLPMHEFLVRIRAQLLWAWARLDEAEASARSGIEVLSSYQPQQQLQCLAMLIQCSLARGDLDNARSQLNRLENLLGNGKYHSDWISNANKVRVIYWQMTGDKAAAANWLRHTAKPEFANNHFLQGQWRNIARAQILLGEFEPAEIVLEELNENARSLRLMSDLNRNLLLLNQLYWQAGRKSDAQRVLLDALKLANRTGFISHFVIEGEAMAQQLRQLIQLNTLPELEQHRAQRILREINQHHRHKFAHFDENFVERLLNHPEVPELIRTSPLTQREWQVLGLIYSGYSNEQIAGELEVAATTIKTHIRNLYQKLGVAHRQDAVQHAQQLLKMMGYGV
notes: MalT, E. coli, His-tagged version encoded by pOM206 (pET24a(+) derivative); Purified in two buffers (with ATP/KCl; or K3 citrate without nucleotide) to serve as control for the variants; Details of the plasmid are in the Supplementary Materials and Methods; also called wt MalT; wild-type MalT; source: E. coli pop8012 (a BL21 ΔmalT strain) with pOM206, purified (nickel-agarose chromatography, …)
binding result [6]: binds

B2: His6-tagged MalT^M96C (natural protein, E. coli, UniProt P06993 1-901, looked up)
chain: B1 chain with M96C
notes: MalT, E. coli, His-tagged, pOM206 derivative; source: E. coli pop8012 (a BL21 ΔmalT strain) with a pOM206 derivative, purified (nickel-agarose chromatography, Superdex 200)
binding result [6]: binds

B3: His6-tagged MalT^H562C (natural protein, E. coli, UniProt P06993 1-901, looked up)
chain: B1 chain with H562C
notes: as for B2
binding result [6]: binds

B4: His6-tagged MalT^M96T (natural protein, E. coli, UniProt P06993 1-901, looked up)
chain: B1 chain with M96T
notes: MalT, E. coli, His-tagged, pOM206 derivative; About 20% aggregated after purification without nucleotide; concentration was corrected for this; also called M96T variant
binding result [7]: binds

B5: His6-tagged MalT^M96C,H562C (natural protein, E. coli, UniProt P06993 1-901, looked up)
chain: B1 chain with M96C, H562C
notes: as for B2
binding result [6]: binds
